Results as given in patent US9409905B2, “Antibacterial compounds and methods for use” (PTC THERAPEUTICS, INC., priority 2011, dated 2016).
Converted amounts (≈) assume the structure as drawn.

Columns and labels:
E. coli 25922 = assay: Antibacterial activity, microbroth dilution MIC (Table 1); type: cell-based, Escherichia coli; conditions: Escherichia coli; microbroth dilution; control Gram-negative E. coli 25922 strain; read-out: MIC, 25922
Summary of the method: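 Broth microdilution against S. aureus 29213, E. coli 25922 and hypersensitive E. coli BAS849. MIC in μg/mL is the lowest drug concentration preventing macroscopically visible growth under test conditions.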

[1] = tested on: Staphylococcus aureus (S. aureus) 29213; assay: as above; type: cell-based; conditions: microbroth dilution, Gram-positive S. aureus 29213, read-out: MIC, 29213
Summary of the method: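 Values are MICs (μg/mL): the smallest drug amount at which macroscopically visible bacterial growth is absent under assay conditions, from a microdilution method in broth.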

[2] = tested on: Escherichia coli (E. coli) BAS849; assay: as above; type: cell-based; conditions: microbroth dilution, super sensitive Gram-negative E. coli BAS849, read-out: MIC, BAS849
Summary of the method: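 Growth inhibition by microbroth dilution. MIC = lowest μg/mL with no visible growth. Strain 25922 is the control Gram-negative; BAS849 is hypersensitive.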

E. coli ELZ4251 = assay: Antibacterial activity, MIC, multi-drug resistant clinical isolate (Table 3); type: cell-based; conditions: Escherichia coli
Summary of the method: (§1)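 Compounds were serially diluted in broth microdilution format and growth was scored visually; the MIC is the lowest concentration at which no macroscopically visible growth occurred, expressed in μg/mL.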

E. coli ELZ4000 = assay: as above; type: cell-based; conditions: Escherichia coli, ELZ4000, read-out: MIC ELZ4000
Summary of the method: as §1

[3] = tested on: Haemophilus influenzae (H. influenzae) 49247; assay: Antibacterial activity, MIC (Table 6); type: cell-based
Description: (§2) The antibacterial activity from a microbroth dilution method may be presented as the minimum inhibitory concentration (MIC in μg/mL). The MIC value is the lowest concentration of drug which prevents macroscopically visible growth under test conditions.
(§3) Antibacterial activity of test compounds against the Gram-negative bacteria Haemophilus influenzae (H. influenzae) 49247 is shown in Table 6, Moraxella catarrhalis (M. catarrhalis) 25238 is shown in Table 7 and Neisseria meningitidis (N. meningitidis) 13090 is shown in Table 8.

E. coli LZ3111 = assay: Antibacterial activity, MIC, quinolone resistant strain (Table 2); type: cell-based; conditions: Escherichia coli, LZ3111, read-out: MIC LZ3111
Summary of the method: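 MIC values (μg/mL) came from a microbroth dilution assay, scored as the lowest drug concentration at which no growth was visible by eye.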

[4] = tested on: Neisseria meningitidis (N. meningitidis) 13090; assay: Antibacterial activity, MIC (Table 8); type: cell-based
Description: as §2, §3

[5] = tested on: Pseudomonas aeruginosa (P. aeruginosa) 27853; assay: Antibacterial activity, MIC (Table 5); type: cell-based; conditions: P. aeruginosa 27853, read-out: MIC, 27853
Summary of the method: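 Values are MICs in μg/mL, read as the lowest concentration at which no growth is visible by eye. They were determined by a microbroth dilution method.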

[6] = tested on: Klebsiella pneumoniae (K. pneumoniae) 35657; assay: Antibacterial activity, MIC (Table 4); type: cell-based; conditions: K. pneumoniae 35657, read-out: MIC, 35657
Summary of the method: (§4)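 Values are MICs in μg/mL, read as the lowest compound concentration at which no growth is visible by eye. They come from a microbroth dilution method.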

[7] = tested on: Acinetobacter baumannii (A. baumannii) BAA747; assay: Antibacterial activity, MIC (Table 4); type: cell-based; conditions: A. baumannii BAA747, read-out: MIC, BAA747
Summary of the method: as §4

K. pneumoniae MXX1232 = assay: Antibacterial activity, MIC, resistant strain (Table 4); type: cell-based; conditions: Klebsiella pneumoniae, MXX1232; resistant K. pneumoniae MMX1232, multi-drug resistant clinical isolate; read-out: MIC, MMX1232
Summary of the method: as §4

A. baumannii MXX2240 = assay: as above; type: cell-based; conditions: Acinetobacter baumannii, MXX2240; resistant A. baumannii MMX2240, multi-drug resistant clinical isolate; read-out: MIC, MMX2240
Summary of the method: as §4

SMILES | MIC (E. coli 25922) [µg/mL] | MIC [1] [µg/mL] | MIC [2] [µg/mL] | MIC (E. coli ELZ4251) [µg/mL] | MIC (E. coli ELZ4000) [µg/mL] | MIC [3] [µg/mL] | MIC (E. coli LZ3111) [µg/mL] | MIC [4] [µg/mL] | MIC [5] [µg/mL] | MIC [6] [µg/mL] | MIC [7] [µg/mL] | MIC (K. pneumoniae MXX1232) [µg/mL] | MIC (A. baumannii MXX2240) [µg/mL]
CCc1cc(C(=O)O)c(=O)[nH]c1-c1ccc2c(ccn2CC)c1 [Cpd 9, 5-ethyl-6-(1-ethyl-1H-indol-5-yl)-2-oxo-1,2-dihydropyridine-3-carboxylic acid] | 1 to 3.5 (≈ 3.22 to 11.3 µM) | 12.5 to 150 (≈ 40.3 to 483 µM) | < 1 | 12.5 to 150 (≈ 40.3 to 483 µM) | 12.5 to 150 (≈ 40.3 to 483 µM) | < 1 | 12.5 to 150 (≈ 40.3 to 483 µM) | – | – | – | – | – | –
CCc1c(-c2ccc3c(c2)cc(C)n3C)[nH]c(=O)c(C(=O)O)c1O [Cpd 38, 6-(1,2-dimethyl-1H-indol-5-yl)-5-ethyl-4-hydroxy-2-oxo-1,2-dihydropyridine-3-carboxylic acid] | 1 to 3.5 (≈ 3.06 to 10.7 µM) | 1 to 3.5 (≈ 3.06 to 10.7 µM) | < 1 | 12.5 to 150 (≈ 38.3 to 460 µM) | 12.5 to 150 (≈ 38.3 to 460 µM) | < 1 | 12.5 to 150 (≈ 38.3 to 460 µM) | < 1 | – | – | – | – | –
CCc1c(-c2ccc3c(c2)OCCN3C)[nH]c(=O)c(C(=O)O)c1O [Cpd 4, 5-ethyl-4-hydroxy-6-(4-methyl-3,4-dihydro-2H-benzo[b][1,4]oxazin-7-yl)-2-oxo-1,2-dihydropyridine-3-carboxylic acid] | 3.5 to 12.5 (≈ 10.6 to 37.8 µM) | 3.5 to 12.5 (≈ 10.6 to 37.8 µM) | < 1 | 3.5 to 12.5 (≈ 10.6 to 37.8 µM) | 3.5 to 12.5 (≈ 10.6 to 37.8 µM) | < 1 | 3.5 to 12.5 (≈ 10.6 to 37.8 µM) | – | 12.5 to 150 (≈ 37.8 to 454 µM) | 3.5 to 12.5 (≈ 10.6 to 37.8 µM) | 1 to 3.5 (≈ 3.03 to 10.6 µM) | 12.5 to 150 (≈ 37.8 to 454 µM) | 1 to 3.5 (≈ 3.03 to 10.6 µM)
CCc1c(-c2ccc3c(c2)CCCN3C)[nH]c(=O)c(C(=O)O)c1O [Cpd 2, 5-ethyl-4-hydroxy-6-(1-methyl-1,2,3,4-tetrahydroquinolin-6-yl)-2-oxo-1,2-dihydropyridine-3-carboxylic acid] | 12.5 to 150 (≈ 38.1 to 457 µM) | 3.5 to 12.5 (≈ 10.7 to 38.1 µM) | < 1 | – | – | < 1 | – | < 1 | – | – | – | – | –
CCc1cc(C(=O)O)c(=O)[nH]c1-c1ccc2c(c1)cc(CN1CCCC1)n2C [Cpd 124, 5-ethyl-6-(1-methyl-2-(pyrrolidin-1-ylmethyl)-1H-indol-5-yl)-2-oxo-1,2-dihydropyridine-3-carboxylic acid] | < 1 | 12.5 to 150 (≈ 32.9 to 395 µM) | < 1 | 12.5 to 150 (≈ 32.9 to 395 µM) | 12.5 to 150 (≈ 32.9 to 395 µM) | – | 12.5 to 150 (≈ 32.9 to 395 µM) | < 1 | 3.5 to 12.5 (≈ 9.22 to 32.9 µM) | 1 to 3.5 (≈ 2.64 to 9.22 µM) | < 1 | 12.5 to 150 (≈ 32.9 to 395 µM) | 12.5 to 150 (≈ 32.9 to 395 µM)
Cc1c(-c2ccc3c(c2)cc2n3CC(N)C2)[nH]c(=O)c(C(=O)O)c1O.Cl (centres unmarked) [Cpd 412, 6-(2-amino-2,3-dihydro-1H-pyrrolo[1,2-a]indol-7-yl)-4-hydroxy-5-methyl-2-oxo-1,2-dihydropyridine-3-carboxylic acid hydrochloride] | 3.5 to 12.5 | 12.5 to 150 | 1 to 3.5 | 3.5 to 12.5 | 3.5 to 12.5 | – | 1 to 3.5 | 1 to 3.5 | 12.5 to 150 | 3.5 to 12.5 | 12.5 to 150 | 12.5 to 150 | 12.5 to 150
CCc1cc(C(=O)O)c(=O)[nH]c1-c1ccc2c(c1)cc(CN1CCCC1C)n2C (centres unmarked) [Cpd 130, 5-ethyl-6-(1-methyl-2-((2-methylpyrrolidin-1-yl)methyl)-1H-indol-5-yl)-2-oxo-1,2-dihydropyridine-3-carboxylic acid] | < 1 | 12.5 to 150 (≈ 31.8 to 381 µM) | < 1 | 12.5 to 150 (≈ 31.8 to 381 µM) | 12.5 to 150 (≈ 31.8 to 381 µM) | – | 12.5 to 150 (≈ 31.8 to 381 µM) | – | 12.5 to 150 (≈ 31.8 to 381 µM) | < 1 | 1 to 3.5 (≈ 2.54 to 8.89 µM) | 12.5 to 150 (≈ 31.8 to 381 µM) | 12.5 to 150 (≈ 31.8 to 381 µM)
CCc1c(-c2ccc3c(c2)oc(=O)n3C)[nH]c(=O)c(C(=O)O)c1O [Cpd 11, 5-ethyl-4-hydroxy-6-(3-methyl-2-oxo-2,3-dihydrobenzo[d]oxazol-6-yl)-2-oxo-1,2-dihydropyridine-3-carboxylic acid] | 1 to 3.5 (≈ 3.03 to 10.6 µM) | 12.5 to 150 (≈ 37.8 to 454 µM) | < 1 | 12.5 to 150 (≈ 37.8 to 454 µM) | 12.5 to 150 (≈ 37.8 to 454 µM) | < 1 | 12.5 to 150 (≈ 37.8 to 454 µM) | – | – | – | – | – | –
